# According to PubChem BioAssay AID1963861 (Molecular Pharmacology Branch, DTP, NCI, 2024):
# Test system: 885724-159-R-J1-PDC KRAS PDC multicell spheroid viability
# Test: Anticancer human tumor 885724-159-R-J1-PDC patient-derived pancreatic adenocarcinoma cell line growth inhibition [KRAS2]
# Details: for IC50: curve of first compound; for viability, T/C: stronger effect = lower value
# Summary of the method: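 KRAS-mutant tumor cells were grown as spheroids with HUVEC endothelial cells and human MSCs as stroma. Targeted agents were tested alone and with KRAS pathway inhibitors. Doses started at or near clinical Cmax, or 10 microM, descending half-log.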
# [1] = second compound 0.0316 µM, first compound 0.0316 µM
# [2] = second compound 0.0316 µM, first compound 0.1 µM
# [3] = second compound 0.1 µM, first compound 0.0316 µM
# [4] = second compound 0.1 µM, first compound 0.1 µM
# [5] = second compound 0.316 µM, first compound 0.0316 µM
# [6] = second compound 0.316 µM, first compound 0.1 µM
# [7] = second compound 1 µM, first compound 0.0316 µM
# [8] = second compound 1 µM, first compound 0.1 µM
# [9] = second compound 3.16 µM, first compound 0.0316 µM
# [10] = second compound 3.16 µM, first compound 0.1 µM
# [11] = second compound 0.0316 µM, first compound 0.316 µM
# [12] = second compound 0.0316 µM, first compound 1 µM
# [13] = second compound 0.0316 µM, first compound 3.16 µM
# [14] = second compound 0.0316 µM, first compound 10 µM
# [15] = second compound 0.1 µM, first compound 0.316 µM
# [16] = second compound 0.1 µM, first compound 1 µM
# [17] = second compound 0.1 µM, first compound 3.16 µM
# [18] = second compound 0.1 µM, first compound 10 µM
# [19] = second compound 0.316 µM, first compound 0.316 µM
# [20] = second compound 0.316 µM, first compound 1 µM
# [21] = second compound 0.316 µM, first compound 3.16 µM
# [22] = second compound 0.316 µM, first compound 10 µM
# [23] = second compound 1 µM, first compound 0.316 µM
# [24] = second compound 1 µM, first compound 1 µM
# [25] = second compound 1 µM, first compound 3.16 µM
# [26] = second compound 1 µM, first compound 10 µM
# [27] = second compound 3.16 µM, first compound 0.316 µM
# [28] = second compound 3.16 µM, first compound 1 µM
# [29] = second compound 3.16 µM, first compound 3.16 µM
# [30] = second compound 3.16 µM, first compound 10 µM
# 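Also: spheroids exposed to agents for 7 days before readout.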
smiles,measurement,setting,value
CC(C)n1nc(-c2ccc3oc(N)nc3c2)c2c(N)ncnc21 + C=CC(=O)N1CCN(c2nc(OCC3CCCN3C)nc3c2CCN(c2cccc4cccc(C)c24)C3)CC1CC#N,IC50,second compound 0.0316 µM,0.0415 µM
same,IC50,second compound 0.1 µM,0.0242 µM
same,IC50,second compound 0.316 µM,0.0191 µM
same,IC50,second compound 1 µM,0.00871 µM
same,IC50,second compound 3.16 µM,0.00086 µM
same,"viability, T/C","second compound 0.0316 µM, first compound 0.000316 µM",88.8%
same,"viability, T/C","second compound 0.0316 µM, first compound 0.001 µM",77.3%
same,"viability, T/C","second compound 0.0316 µM, first compound 0.00316 µM",67.8%
same,"viability, T/C","second compound 0.0316 µM, first compound 0.01 µM",60.6%
same,"viability, T/C",[1],49.9%
same,"viability, T/C",[2],45.9%
same,"viability, T/C","second compound 0.1 µM, first compound 0.000316 µM",88.1%
same,"viability, T/C","second compound 0.1 µM, first compound 0.001 µM",80.4%
same,"viability, T/C","second compound 0.1 µM, first compound 0.00316 µM",69.4%
same,"viability, T/C","second compound 0.1 µM, first compound 0.01 µM",61.7%
same,"viability, T/C",[3],44.2%
same,"viability, T/C",[4],41.2%
same,"viability, T/C","second compound 0.316 µM, first compound 0.000316 µM",82.1%
same,"viability, T/C","second compound 0.316 µM, first compound 0.001 µM",73.8%
same,"viability, T/C","second compound 0.316 µM, first compound 0.00316 µM",61.4%
same,"viability, T/C","second compound 0.316 µM, first compound 0.01 µM",55.6%
same,"viability, T/C",[5],45.1%
same,"viability, T/C",[6],41.8%
same,"viability, T/C","second compound 1 µM, first compound 0.000316 µM",81.9%
same,"viability, T/C","second compound 1 µM, first compound 0.001 µM",85.5%
same,"viability, T/C","second compound 1 µM, first compound 0.00316 µM",63.8%
same,"viability, T/C","second compound 1 µM, first compound 0.01 µM",50.2%
same,"viability, T/C",[7],44.1%
same,"viability, T/C",[8],41.1%
same,"viability, T/C","second compound 3.16 µM, first compound 0.000316 µM",68.3%
same,"viability, T/C","second compound 3.16 µM, first compound 0.001 µM",43.1%
same,"viability, T/C","second compound 3.16 µM, first compound 0.00316 µM",42.9%
same,"viability, T/C","second compound 3.16 µM, first compound 0.01 µM",15.3%
same,"viability, T/C",[9],24%
same,"viability, T/C",[10],15.7%
CC1(C)CCC(CN2CCN(c3ccc(C(=O)NS(=O)(=O)c4ccc(NCC5CCOCC5)c([N+](=O)[O-])c4)c(Oc4cnc5[nH]ccc5c4)c3)CC2)=C(c2ccc(Cl)cc2)C1 + C=CC(=O)N1CCN(c2nc(OCC3CCCN3C)nc3c2CCN(c2cccc4cccc(C)c24)C3)CC1CC#N,IC50,second compound 0.0316 µM,4.25 µM
same,IC50,second compound 0.1 µM,5.18 µM
same,IC50,second compound 0.316 µM,3.28 µM
same,IC50,second compound 1 µM,3.85 µM
same,IC50,second compound 3.16 µM,0.339 µM
same,"viability, T/C",[1],99.3%
same,"viability, T/C",[2],100%
same,"viability, T/C",[11],108%
same,"viability, T/C",[12],101%
same,"viability, T/C",[13],64.8%
same,"viability, T/C",[14],7.81%
same,"viability, T/C",[3],115%
same,"viability, T/C",[4],100%
same,"viability, T/C",[15],93.1%
same,"viability, T/C",[16],107%
same,"viability, T/C",[17],80.5%
same,"viability, T/C",[18],9.45%
same,"viability, T/C",[5],100%
same,"viability, T/C",[6],99.8%
same,"viability, T/C",[19],94.8%
same,"viability, T/C",[20],100%
same,"viability, T/C",[21],51.3%
same,"viability, T/C",[22],9.84%
same,"viability, T/C",[7],86.1%
same,"viability, T/C",[8],97.8%
same,"viability, T/C",[23],87.3%
same,"viability, T/C",[24],84.5%
same,"viability, T/C",[25],59%
same,"viability, T/C",[26],6.08%
same,"viability, T/C",[9],55.2%
same,"viability, T/C",[10],55%
same,"viability, T/C",[27],43.9%
same,"viability, T/C",[28],35.8%
same,"viability, T/C",[29],0.97%
same,"viability, T/C",[30],0.63%
COc1cc(Nc2ncc3c(n2)-c2ccc(Cl)cc2C(c2c(F)cccc2OC)=NC3)ccc1C(=O)O + C=CC(=O)N1CCN(c2nc(OCC3CCCN3C)nc3c2CCN(c2cccc4cccc(C)c24)C3)CC1CC#N,IC50,second compound 0.0316 µM,> 10 µM
same,IC50,second compound 0.1 µM,> 10 µM
same,IC50,second compound 0.316 µM,> 10 µM
same,IC50,second compound 1 µM,> 10 µM
same,IC50,second compound 3.16 µM,< 0.0316 µM
same,"viability, T/C",[1],103%
same,"viability, T/C",[2],92.4%
same,"viability, T/C",[11],87.9%
same,"viability, T/C",[12],92.4%
same,"viability, T/C",[13],93.1%
same,"viability, T/C",[14],105%
same,"viability, T/C",[3],100%
same,"viability, T/C",[4],88.8%
same,"viability, T/C",[15],88.9%
same,"viability, T/C",[16],90.4%
same,"viability, T/C",[17],99.4%
same,"viability, T/C",[18],100%
same,"viability, T/C",[5],89.2%
same,"viability, T/C",[6],84%
same,"viability, T/C",[19],83.6%
same,"viability, T/C",[20],84.2%
same,"viability, T/C",[21],76.6%
same,"viability, T/C",[22],89%
same,"viability, T/C",[7],80%
same,"viability, T/C",[8],76.9%
same,"viability, T/C",[23],77.8%
same,"viability, T/C",[24],75.1%
same,"viability, T/C",[25],75.7%
same,"viability, T/C",[26],78.2%
same,"viability, T/C",[9],46.9%
same,"viability, T/C",[10],46.3%
same,"viability, T/C",[27],42.3%
same,"viability, T/C",[28],54.5%
same,"viability, T/C",[29],60%
same,"viability, T/C",[30],44.6%
COc1cc2nccc(Oc3ccc(NC(=O)C4(C(=O)Nc5ccc(F)cc5)CC4)cc3)c2cc1OC + C=CC(=O)N1CCN(c2nc(OCC3CCCN3C)nc3c2CCN(c2cccc4cccc(C)c24)C3)CC1CC#N,IC50,second compound 0.0316 µM,> 10 µM
same,IC50,second compound 0.1 µM,> 10 µM
same,IC50,second compound 0.316 µM,> 10 µM
same,IC50,second compound 1 µM,> 10 µM
same,IC50,second compound 3.16 µM,0.43 µM
same,"viability, T/C",[1],109%
same,"viability, T/C",[2],114%
same,"viability, T/C",[11],113%
same,"viability, T/C",[12],99.5%
same,"viability, T/C",[13],70.4%
same,"viability, T/C",[14],69.9%
same,"viability, T/C",[3],111%
same,"viability, T/C",[4],108%
same,"viability, T/C",[15],102%
same,"viability, T/C",[16],111%
same,"viability, T/C",[17],72.2%
same,"viability, T/C",[18],73%
same,"viability, T/C",[5],102%
same,"viability, T/C",[6],111%
same,"viability, T/C",[19],106%
same,"viability, T/C",[20],104%
same,"viability, T/C",[21],79.7%
same,"viability, T/C",[22],62.7%
same,"viability, T/C",[7],111%
same,"viability, T/C",[8],108%
same,"viability, T/C",[23],111%
same,"viability, T/C",[24],102%
same,"viability, T/C",[25],66.6%
same,"viability, T/C",[26],59.6%
same,"viability, T/C",[9],80.1%
same,"viability, T/C",[10],73.7%
same,"viability, T/C",[27],55%
same,"viability, T/C",[28],33.7%
same,"viability, T/C",[29],12.4%
same,"viability, T/C",[30],0.35%
